≈ marks a conversion by molar mass, not a printed value.
Tests used:
[1] = tested on: HIV-2 (ROD); assay: Inhibition of HIV-induced cytopathogenic effect in MT-4 cells (MTT), HIV-2; format: cell-based; details: for IC50: Human immunodeficiency virus 2, MT4, 50% protection against HIV-induced cytopathogenic effect, MT-4 cells, MTT; for HIV-2 (ROD) SI: selectivity index = ratio of CC50 to IC50, HIV-2
Experimental: (§1) A rapid and automated assay procedure was used for the in vitro evaluation of anti-HIV agents. An HTLV-1 transformed T4-cell line MT-4, which was previously shown to be highly susceptible to and permissive for HIV infection, served as the target cell line. Inhibition of the HIV-induced cytopathogenic effect was used as the end point. The viabitlity of both HIV-and mock-infected cells was assessed spectrophotometrically via in situ reduction of 3-(4,5-dimethylthiazol-2-yl)-2,5-diphenyltetrazolium bromide (MTT). The 50% cytotoxic concentration (CC50 in μg/ml) was defined as the concentration of compound that reduced the absorbance of the mock-infected control sample by 50%. The percent protection achieved by the compound in HIV-infected cells was calculated by the following formula:
(§2) [formula] whereby (ODT)HIV is the optical density measured with a given concentration of the test compound in HIV-infected cells; (ODC)HIV is the optical density measured for the control untreated HIV-infected cells; (ODC)MOCK is the optical density measured for the control untreated mock-infected cells; all optical density values were determined at 540 nm. The dose achieving 50% protection according to the above formula was defmed as the 50% inhibitory concentration (IC50 in μg/ml). The ratio of CC50 to IC50 was defined as the selectivity index (SI).
(§3) Cells: MT-4 cells (Miyoshi et al., 1982) were grown and maintained in RPMI 1640 medium supplemented with 10% heat-inactivated fetal calf serum, 2 mM 1-glutamine, 0.1% sodium bicarbonate, and 20 œg of gentamicin per ml.
(§4) Viruses: The HIV-1(NL4.3) strain (Adachi et al., 1986) is a molecular clone obtained from the National Institutes of Health (Bethesda, Md.). The HIV-2(ROD) (Barr,-Sinoussi et al., 1983) stock was obtained from culture supernatant of HIV-2 infected cell lines.

[2] = Cytotoxicity in mock-infected MT-4 cells (MTT); format: cell-based; details: human; mock-infected MT-4 cells, absorbance reduced by 50%, MTT
Experimental: as §1, with “formula: Examples of inhibition of cell proliferation by particular compounds of formula (I) can be found by looking at the respective CC50 values in the MT-4 cell line. Cells: MT-4 cells (Miyoshi et al., 1982) were grown and maintained in RPMI 1640 medium supplemented with 10% heat-inactivated fetal calf serum, 2 mM […], 0.1% sodium bicarbonate, and 20 œg of gentamicin per ml.” for “formula:”

[3] = tested on: HIV-1 (NL4.3 WT); assay: Inhibition of HIV-induced cytopathogenic effect in MT-4 cells (MTT), HIV-1; format: cell-based; details: for IC50: Human immunodeficiency virus 1, MT4, 50% protection against HIV-induced cytopathogenic effect, MT-4 cells, MTT; for HIV-1 (NL4.3 WT) SI: selectivity index = ratio of CC50 to IC50, HIV-1
Experimental: as §1, §2, §3, §4

Row | Compound | melting point | other results
1 | COC(=O)c1[nH]c(=S)n(Nc2cccc(Cl)c2)c1C [Compound 9.29, 1-(3-Chlorophenylamino)-2,3-dihydro-4-methoxycarbonyl-5-methyl-1H-imidazole-2-thione] | 160 to 162 °C | 
2 | Cc1cccc(Nn2c(-c3ccccc3)c(C)[nH]c2=S)c1 [Compound 9.19, 2,3-Dihydro-4-methyl-1-(3-methylphenylamino)-5-phenyl-1H-imidazole-2-thione] | 206 °C | IC50 [1]: > 20.7 µg/mL; HIV-2 (ROD) SI [1]: <1; CC50 [2]: 20.7 µg/mL (≈ 70.1 µM); IC50 [3]: 0.6 µg/mL (≈ 2.03 µM); HIV-1 (NL4.3 WT) SI [3]: 32.3
3 | S=c1[nH]c2c(n1Nc1cccc(Cl)c1)CCCC2 [Compound 9.11, 1-(3-Chlorophenylamino)-2,3,4,5,6,7-hexahydro-1H-benzimidazole-2-thione] | 148 °C | IC50 [1]: > 34 µg/mL; HIV-2 (ROD) SI [1]: <1; CC50 [2]: 34 µg/mL (≈ 122 µM); IC50 [3]: 13.1 µg/mL (≈ 46.8 µM); HIV-1 (NL4.3 WT) SI [3]: 2.6
4 | Cc1nc(SCc2ccccc2)n(Nc2cccc(Cl)c2)c1-c1ccccc1 | 130 °C | 
5 | Cc1[nH]c(=S)n(Nc2ccccc2Cl)c1-c1ccccc1 [Compound 9.02, 1-(2-Chlorophenylamino)-2,3-dihydro-4-methyl-5-phenyl-1H-imidazole-2-thione] | 220 to 221 °C | IC50 [1]: > 65 µg/mL; HIV-2 (ROD) SI [1]: <1; CC50 [2]: 65 µg/mL (≈ 206 µM); IC50 [3]: 7.4 µg/mL (≈ 23.4 µM); HIV-1 (NL4.3 WT) SI [3]: 9.0
6 | COC(=O)c1c(C)[nH]c(=S)n1Nc1cccc(Cl)c1 [Compound 9.27, 1-(3-Chlorophenylamino)-2,3-dihydro-5-methoxycarbonyl-4-methyl-1H-imidazole-2-thione] | 194 to 196 °C | 
7 | Cc1[nH]c(=S)n(Nc2ccc(Cl)cc2)c1-c1ccccc1 [Compound 9.04, 1-(4-Chlorophenylamino)-2,3-dihydro-4-methyl-5-phenyl-1H-imidazole-2-thione] | 212 to 214 °C | 
8 | Cc1[nH]c(=S)n(Nc2cccc(Cl)c2)c1-c1cccc(Br)c1 [Compound 9.05, 5-(3-Bromophenyl)-1-(3-chlorophenylamino)-2,3-dihydro-4-methyl-1H-imidazole-2-thione] | 196 °C | IC50 [1]: 4.1 µg/mL (≈ 10.4 µM); HIV-2 (ROD) SI [1]: 5.5; CC50 [2]: 22.9 µg/mL (≈ 58 µM); IC50 [3]: 2.2 µg/mL (≈ 5.57 µM); HIV-1 (NL4.3 WT) SI [3]: 10.4
9 | CCc1[nH]c(=S)n(Nc2cccc(Cl)c2)c1-c1ccccc1 [Compound 9.24, 1-(3-Chlorophenylamino)-2,3-dihydro-4-ethyl-5-phenyl-1H-imidazole-2-thione] | 116 to 118 °C | 
10 | Cc1cccc(Nn2c(-c3ccccc3)c(C(C)C)[nH]c2=S)c1 [Compound 9.23, 2,3-Dihydro-4-isopropyl-1-(3-methylphenylamino)-5-phenyl-1H-imidazole-2-thione] | 220 to 222 °C | 
11 | S=c1[nH]c(-c2ccccc2)c(-c2ccccc2)n1Nc1cccc(Cl)c1 [Compound 9.26, 1-(3-Chlorophenylamino)-2,3-dihydro-4,5-diphenyl-1H-imidazole-2-thione] | 178 to 180 °C | 
12 | Cc1cccc(Nn2c(C)c(C)[nH]c2=S)c1 [Compound 9.22, 2,3-Dihydro-4,5-dimethyl-1-(3-methylphenylamino)-1H-imidazole-2-thione] | 230 °C | 
13 | Cc1[nH]c(=S)n(Nc2cccc(Cl)c2)c1C [Compound 9.20, 2,3-Dihydro-4,5-dimethyl-1-(3-chlorophenylamino)-1H-imidazole-2-thione] | 234 °C | 
14 | Cc1[nH]c(=S)n(Nc2cccc(Cl)c2)c1C(=O)O [Compound 9.28, 1-(3-Chlorophenylamino)-2,3-dihydro-5-hydroxycarbonyl-4-methyl-1H-imidazole-2-thione] | 166 to 168 °C | 
15 | CSc1nc(C)c(-c2ccccc2)n1Nc1cccc(Cl)c1 | 215 °C | 
16 | Cc1c(-c2ccccc2)[nH]c(=S)n1Nc1cccc(Cl)c1 [Compound 9.10, 1-(3-Chlorophenylamino)-2,3-dihydro-5-methyl-4-phenyl-1H-imidazole-2-thione] | 238 °C | 
17 | Cc1[nH]c(=S)n(Nc2cccc(Cl)c2)c1-c1ccc(Cl)cc1 [Compound 9.08, 5-(4-Chlorophenyl)-1-(3-chlorophenylamino)-2,3-dihydro-4-methyl-1H-imidazole-2-thione] | 225 °C | 
18 | Cc1[nH]c(=S)n(Nc2ccc(F)cc2)c1-c1ccccc1 [Compound 9.03, 2,3-Dihydro-1-(4-fluorophenylamino)-4-methyl-5-phenyl-1H-imidazole-2-thione] | 228 °C | 
19 | Cc1[nH]c(=S)n(Nc2ccccc2)c1C [Compound 9.21, 2,3-Dihydro-4,5-dimethyl-1-(phenylamino)-1H-imidazole-2-thione] | 217 to 219 °C | 
20 | COc1ccc(-c2c(C)[nH]c(=S)n2Nc2cccc(Cl)c2)cc1 [Compound 9.09, 2,3-Dihydro-1-(3-chlorophenylamino)-5-(4-methoxyphenyl)-4-methyl-1H-imidazole-2-thione] | 226 °C | 

The next lines start with results.

Row | melting point | Compound | other results
21 | 156 to 158 °C | COc1cccc(Nn2cnc(C)c2-c2ccccc2)c1 [Compound 13.14, 1-(3-Methoxyphenylamino)-4-methyl-5-phenyl-1H-imidazole] | 
22 | 154 to 156 °C | Cc1cc(C)cc(Nn2cnc(C)c2-c2ccccc2)c1 [Compound 13.13, 1-(3,5-Dimethylphenylamino)-4-methyl-5-phenyl-1H-imidazole] | 
23 | 240 to 242 °C | Cc1cc(C)cc(Nn2c(-c3ccccc3)c(C)[nH]c2=S)c1 [Compound 9.30, 2,3-Dihydro-1-(3,5-dimethylphenylamino)-4-methyl-5-phenyl-1H-imidazole-2-thione] | IC50 [1]: > 65.3 µg/mL; HIV-2 (ROD) SI [1]: <1; CC50 [2]: 65.3 µg/mL (≈ 211 µM); IC50 [3]: 0.3 µg/mL (≈ 0.969 µM); HIV-1 (NL4.3 WT) SI [3]: 241.9
24 | 146 °C | Cc1ncn(Nc2cccc(Cl)c2)c1C [Compound 13.07, 1-(3-Chlorophenylamino)-4,5-dimethyl-1H-imidazole] | 
25 | 138 to 140 °C | Cc1cccc(Nn2cnc(C)c2-c2cccc(C#N)c2)c1 [Compound 13.16, 5-(3-Cyanophenyl)-4-methyl-1-(3-methylphenylamino)-1H-imidazole] | 
26 | 144 °C | Cc1cccc(Nn2cnc(C)c2C)c1 [Compound 13.08, 4,5-Dimethyl-1-(3-methylphenylamino)-1H-imidazole] | 
27 | 168 °C | Cc1ncn(Nc2cccc(Cl)c2)c1-c1cccc(Cl)c1 [Compound 13.03, 5-(3-Chlorophenyl)-1-(3-chlorophenylamino)-4-methyl-1H-imidazole] | IC50 [1]: 0.23 µg/mL (≈ 0.723 µM); HIV-2 (ROD) SI [1]: 63.8; CC50 [2]: 14.7 µg/mL (≈ 46.2 µM); IC50 [3]: 0.2 µg/mL (≈ 0.629 µM); HIV-1 (NL4.3 WT) SI [3]: 73.5
28 | 164 to 166 °C | COC(=O)c1cccc(-c2c(C)[nH]c(=S)n2Nc2cccc(C)c2)c1 [Compound 9.35, 2,3-Dihydro-4-methyl-1-(3-methylphenylamino)-5-(3-methoxycarbonylphenyl)-1H-imidazole-2-thione] | 
29 | 178 °C | Cc1ncn(Nc2ccccc2)c1C [Compound 13.06, 4,5-Dimethyl-1-phenylamino-1H-imidazole] | 
30 | 155 °C | Cc1ncn(Nc2ccc(F)cc2)c1-c1ccccc1 [Compound 13.10, 1-(4-Fluorophenylamino)-4-methyl-5-phenyl-1H-imidazole] | 
31 | 180 °C | Clc1cccc(Nn2cnc3c2CCCC3)c1 [Compound 13.04, 1-(3-Chlorophenylamino)-4,5,6,7-tetrahydro-1H-benzimidazole] | 
32 | 158 to 160 °C | CCc1ncn(Nc2cccc(C)c2)c1-c1ccccc1 [Compound 13.11, 4-Ethyl-1-(3-methylphenylamino)-5-phenyl-1H-imidazole] | 
33 | 165 to 167 °C | Cc1ncn(Nc2ccccc2)c1-c1ccccc1 [Compound 13.05, 4-Methyl-5-phenyl-1-phenylamino-1H-imidazole] | 

From patent US7049332B2, “HIV inhibiting N-aminoimidazole derivatives” (K. U. Leuven Research & Development, priority 2001, dated 2006)
